# Square brackets hold non-standard residues; d marks the D form. Peptide text beside a SMILES is read from it. * marks the point of attachment. Trt = c1ccc(C(c2ccccc2)(c2ccccc2)*)cc1; Boc = CC(C)(C)OC(=O)*; Bz = O=C(c1ccccc1)*; OBn = c1ccc(CO*)cc1; OAll = C=CCO*
# What was measured:
# [1] = test system: tobacco bacterial rot (Pectobacterium carotovorum); assay: Suppression of tobacco bacterial rot; assay type: in vivo, Pectobacterium carotovorum SCC1
# Protocol: A tobacco or cucumber was sown in a plastic pot with a diameter of 10 cm×13 cm, and then, 12 pots were added in a yellow box. After seeding, 100 μL was inoculated to the cotyledons of cucumber or tobacco, in which first leaf was started to come out. The test compounds were dissolved in 20% methanol to make a stock solution, and then, the stock solution was diluted to the concentrations of 1, 10, and 100 ppm.
# After 7 days, the pathogen of a plant bacterial rot (Pectobacterium carotovorum SCC1) was cultured in a TSA medium for 27 hours; and then, the cultured pathogen was sprayed in a concentration of 10^8 cfu/mL to the plant leaves, and cultured at 30° C. for 3 days. The plant anthracnose germ (Colletotrichum orbiculare) was cultured in a GBA (Green bean agar) medium to induce spores for about 2 to 3 weeks. The germ was sprayed in a concentration of 10^5 cell/mL and then cultured at 26° C. for 1 day. When fourth or fifth leaf came out, 200 μL of each of the test compounds was inoculated to third leaf. After 7 days, the pathogen of the plant bacterial rot was sprayed to the plant leaves in the concentration of 10^8 cfu/mL, and then cultured at 30° C. for 3 days.
# The investigation was performed with naked eyes, and the lesion relative areas were investigated until 0 to 100% according to the shortness degrees of the bacterial rot. The anthracnose was investigated by counting the number of lesions occurred on the leaves.
# [2] = test system: pepper phytophthora blight (Phytopthora capsici); assay: Suppression of pepper phytophthora blight on leaves; assay type: in vivo; conditions: for Outbreak of the phytophthora blight on the leaves: drench-treated to the roots; for Lesion outbreak rate: pepper leaves
# Protocol: The peppers were raised in the same method as Example 3, and then, the test compounds were dissolved in 20% methanol to make a stock solution, and a stock was diluted to the concentrations of 0.1, 1.0, and 10.0 ppm. The test solutions were sprayed on the leaves or drench-treated on the leaves. After 7 days, the pathogen of plant bacterial rot (Pectobacterium carotovorum SCC1) was cultured in a TSA medium for 27 hours, and then, wetted on an 8 mm diameter paper disc in the concentration of 10^8 cfu/mL. The paper disc was located in the center of the leaves that were cut roundly, and then, after about 7 days, the lesion area was measured. In the case of phytophthora, the potato agar medium cultured with the phytophthora (Phytophthora capsici) was cut in the internal diameter size of 5 mm with a cork borer, and then inoculated to the leaves. After 7 days, the lesion area was observed. In the case of a bacterial rot, when Compounds 6, 89, 93, and 95 were sprayed on the pepper leaves, the bacterial rot was not found in the concentration of 1 or 10 ppm as compared with the non-treated group. […] The Suppression of lesion formation on the leaves when these compounds were drench-treated to the roots can be explained as it was resulted from that systemic disease resistance was induced in the whole plant. These test results are illustrated in the photographs of FIGS. 5 to 9.
# cucumber leaves = assay: Plant growth promotion, width of cucumber leaf; assay type: in vivo; conditions: non-treated = 100.0 (92.1 mm), unit of the source corrected
# Protocol: The active ingredients (Compounds 5 to 8, 14, and 15) were drenched to the leaves of a plant (pepper, potato, tomato, tobacco, cucumber, and Chinese cabbage), and then, after 7 days, the plant lengths were measured. Since then, the plant disease pathogen was inoculated, and then, after 3 to 5 days, the sizes of the plant leaves were measured and compared with the control group to obtain the relative growth degrees.
# [3] = drench-treated, 1.0 or 10.0 ppm
Structure (SMILES),Lesion outbreak rate ([2]; 0.1 ppm) [area %],Lesion outbreak rate ([2]; 1.0 ppm) [area %],also measured
COC(=O)CNC(=O)[C@@H](N)CC(C)C [Compound 4] (H-Leu-Gly-OMe),,,"Lesion outbreak rate ([1]; Table 3, tobacco, 1 ppm): 47%; Lesion outbreak rate ([1]; Table 3, tobacco, 10 ppm): 80%; Lesion outbreak rate ([1]; Table 3, tobacco, 100 ppm): 90%; Outbreak of the phytophthora blight on the leaves [2]: significantly decreased"
COC(=O)CNC(=O)[C@@H](NC(=O)OC(C)(C)C)C(C)C [Compound 5] (Boc-Val-Gly-OMe),,,"Lesion outbreak rate ([1]; Table 3, tobacco, 1 ppm): 73%; Lesion outbreak rate ([1]; Table 3, tobacco, 10 ppm): 40%; Lesion outbreak rate ([1]; Table 3, tobacco, 100 ppm): 7.7%; Width of cucumber leaf (relative value to the non-treated group) (cucumber leaves; 1.0 ppm): 100%; Width of cucumber leaf (relative value to the non-treated group) (cucumber leaves; 10 ppm): 111%; Width of cucumber leaf (relative value to the non-treated group) (cucumber leaves; 100 ppm): 121%"
COC(=O)C(CC(C)C)NC(=O)C(NC(=O)OC(C)(C)C)C(C)O (stereo not drawn) [Compound 7] (Boc-Thr-Leu-OMe; configuration not given here),,,"Lesion outbreak rate ([1]; Table 3, tobacco, 1 ppm): 40%; Lesion outbreak rate ([1]; Table 3, tobacco, 10 ppm): 27%; Lesion outbreak rate ([1]; Table 3, tobacco, 100 ppm): 20%; Width of cucumber leaf (relative value to the non-treated group) (cucumber leaves; 1.0 ppm): 110%; Width of cucumber leaf (relative value to the non-treated group) (cucumber leaves; 10 ppm): 121%; Width of cucumber leaf (relative value to the non-treated group) (cucumber leaves; 100 ppm): 121%"
COC(=O)C(CC(C)C)NC(=O)C(N)C(C)O (stereo not drawn) [Compound 8] (H-Thr-Leu-OMe; configuration not given here),,,"Lesion outbreak rate ([1]; Table 3, tobacco, 1 ppm): 43%; Lesion outbreak rate ([1]; Table 3, tobacco, 10 ppm): 57%; Lesion outbreak rate ([1]; Table 3, tobacco, 100 ppm): 0%; Width of cucumber leaf (relative value to the non-treated group) (cucumber leaves; 1.0 ppm): 122%; Width of cucumber leaf (relative value to the non-treated group) (cucumber leaves; 10 ppm): 123%; Width of cucumber leaf (relative value to the non-treated group) (cucumber leaves; 100 ppm): 120%"
COC(=O)[C@H]1CCCN1C(=O)[C@@H](CCC(N)=O)NC(=O)OC(C)(C)C [Compound 72] (Boc-[dQ]-[dP]-OMe),,,"Lesion outbreak rate ([1]; Table 6, tobacco, 1 ppm): 55%; Lesion outbreak rate ([1]; Table 6, tobacco, 10 ppm): 72%; Lesion outbreak rate ([1]; Table 6, tobacco, 100 ppm): 45%"
COC(=O)[C@H]1CCCN1C(=O)[C@@H](Cc1c[nH]c2ccccc12)NC(=O)OC(C)(C)C [Compound 73] (Boc-[dW]-[dP]-OMe),,,"Lesion outbreak rate ([1]; Table 6, tobacco, 1 ppm): 35%; Lesion outbreak rate ([1]; Table 6, tobacco, 10 ppm): 60%; Lesion outbreak rate ([1]; Table 6, tobacco, 100 ppm): 46%"
COC(=O)[C@H]1CCCN1C(=O)[C@@H](CC(C)C)NC(=O)OC(C)(C)C [Compound 75] (Boc-[dL]-[dP]-OMe),,,"Lesion outbreak rate ([1]; Table 6, tobacco, 1 ppm): 25%; Lesion outbreak rate ([1]; Table 6, tobacco, 10 ppm): 80%; Lesion outbreak rate ([1]; Table 6, tobacco, 100 ppm): 100%"
COC(=O)[C@H]1CCCN1C(=O)[C@H](NC(=O)OC(C)(C)C)C(C)C [Compound 76] (Boc-[dV]-[dP]-OMe),,,"Lesion outbreak rate ([1]; Table 6, tobacco, 1 ppm): 46%; Lesion outbreak rate ([1]; Table 6, tobacco, 10 ppm): 41%; Lesion outbreak rate ([1]; Table 6, tobacco, 100 ppm): 37%"
COC(=O)[C@@H]1CCCN1C(=O)[C@@H](CSC(c1ccccc1)(c1ccccc1)c1ccccc1)NC(=O)OC(C)(C)C [Compound 77] (Boc-[dC](Trt)-Pro-OMe),46,36,
COC(=O)[C@@H]1CCCN1C(=O)[C@H](N)CS [Compound 78] (H-[dC]-Pro-OMe),58,47,
COC(=O)CNC(=O)[C@H](CO)NC(=O)OC(C)(C)C [Compound 81] (Boc-Ser-Gly-OMe),68,58,
CCOC(=O)[C@H](C)NC(=O)CNC(=O)OC(C)(C)C [Compound 82] (Boc-Gly-Ala-OEt),74,60,
CCOC(=O)[C@H](Cc1ccccc1)NC(=O)[C@H](CC(C)C)NC(=O)OC(C)(C)C [Compound 83] (Boc-Leu-Phe-OEt),80,57,
COC(=O)[C@@H]1CCCN1C(=O)[C@H](Cc1c[nH]c2ccccc12)NC(=O)OC(C)(C)C [Compound 84] (Boc-Trp-Pro-OMe),35,33,
COC(=O)[C@@H]1CCCN1C(=O)[C@H](C)NC(=O)OC(C)(C)C [Compound 86] (Boc-Ala-Pro-OMe),58,83,
COC(=O)[C@@H](NC(=O)CNC(=O)OC(C)(C)C)C(C)C [Compound 87] (Boc-Gly-Val-OMe),62,36,
COC(=O)[C@@H](NC(=O)CN)C(C)C [Compound 88] (H-Gly-Val-OMe),35,33,

Structure (SMILES),Lesion outbreak rate ([2]; 0.1 ppm) [area %],Lesion outbreak rate ([2]; 1.0 ppm) [area %],also measured
C=CCOC(=O)C[C@H](NC(=O)OC(C)(C)C)C(=O)N[C@@H](Cc1ccccc1)C(=O)OC [Compound 92] (Boc-Asp(OAll)-Phe-OMe),25,38,
COC(=O)[C@H](Cc1ccccc1)NC(=O)[C@H](CC(=O)OCc1ccccc1)NC(=O)OC(C)(C)C [Compound 94] (Boc-Asp(OBn)-Phe-OMe),12,6.8,"Outbreak of the phytophthora blight on the leaves [2]: significantly decreased; Lesion formation, pepper phytophthora test [2, 3]: no the lesion formations"
COC(=O)C[C@H](NC(C)=O)C(=O)N[C@@H](Cc1ccccc1)C(=O)OC [Compound 96] (Ac-Asp(OMe)-Phe-OMe),32,23,
COC(=O)C[C@H](NC(=O)c1ccccc1)C(=O)N[C@@H](Cc1ccccc1)C(=O)OC [Compound 97] (Bz-Asp(OMe)-Phe-OMe),22,25,
C=CCOC(=O)C[C@H](NC(C)=O)C(=O)N[C@@H](Cc1ccccc1)C(=O)OC [Compound 98] (Ac-Asp(OAll)-Phe-OMe),16,12,
C=CCOC(=O)C[C@H](NC(=O)c1ccccc1)C(=O)N[C@@H](Cc1ccccc1)C(=O)OC [Compound 99] (Bz-Asp(OAll)-Phe-OMe),36,18,
COC(=O)[C@H](Cc1ccccc1)NC(=O)[C@H](CC(=O)OCc1ccccc1)NC(C)=O [Compound 100] (Ac-Asp(OBn)-Phe-OMe),19,21,
COC(=O)[C@H](Cc1ccccc1)NC(=O)[C@H](CC(=O)OCc1ccccc1)NC(=O)c1ccccc1 [Compound 101] (Bz-Asp(OBn)-Phe-OMe),11,27,
COC(=O)[C@H](Cc1ccccc1)NC(=O)[C@H](CC(=O)O)NC(C)=O [Compound 102] (Ac-Asp-Phe-OMe),20,15,
COC(=O)CNC(=O)[C@@H](NC(C)=O)C(C)C [Compound 103] (Ac-Val-Gly-OMe),15,28,
COC(=O)CNC(=O)[C@H](CC(C)C)NC(C)=O [Compound 104] (Ac-Leu-Gly-OMe),22,18,
COC(=O)CNC(=O)[C@@H]1CCCN1C(C)=O [Compound 105] (Ac-Pro-Gly-OMe),18,21,
COC(=O)[C@@H]1CCCN1C(=O)CNC(=O)OC(C)(C)C [Compound 106] (Boc-Gly-Pro-OMe),25,26,
COC(=O)[C@@H]1CCCN1C(=O)[C@@H](N)Cc1c[nH]c2ccccc12 [Compound 107] (H-Trp-Pro-OMe),9.3,3.5,"Effect on suppressing the outbreak of pepper phytophthora blight or bacterial rot as compared with the non-treated control group ([2]; directly sprayed to the leaves, phytophthora blight or bacterial rot): excellent; Outbreak of the phytophthora blight on the leaves [2]: significantly decreased; Lesion formation, pepper phytophthora test [2, 3]: no the lesion formations; Lesion formation, pepper phytophthora test ([2]; sprayed on the leaves, 1 or 0.1 ppm): no the lesion formations"
COC(=O)[C@H](C)NC(=O)[C@@H](N)C(C)C [Compound 108] (H-Val-Ala-OMe),14,18,
CCC(C)C(N)C(=O)NC(C)C(=O)OC (stereo not drawn) [Compound 109],25,9.4,
